Earlier results, collected in US20210251923A1, “METHODS FOR IMPROVING NEUROLOGICAL DISEASES AND DISORDERS” (CuraSen Therapeutics, Inc., priority 2018, published 2021).

Test system: Ts65Dn mice
Details: increasing brain NE levels

In the case of `N[C@H](C(=O)O)[C@H](O)c1ccc(O)c(O)c1` [L-DOPS, L-threo-3,4-dihydroxyphenylserine], the contextual learning is given as “restored contextual learning”.
